In patent publication US5179089A, “Isoquinoline compounds, compositions and use” (Chinoin Gyogyszer es Vegyeszeti Termekek Gyara Rt., priority 1990, dated 1993):
Structures can show the parent of a compound that is named as a salt. Where two headings read alike, the source gives them in different places.

Assays:
[1] = system: histamine-induced constriction of isolated tracheal smooth muscle of guinea pig; assay: Inhibition of the histamine-induced constriction of isolated tracheal smooth muscle of guinea pig; settings: isolated guinea pig trachea; for IC50: Cavia porcellus, 0.25 h, read-out: Inhibition of the histamine-induced constriction of isolated tracheal smooth muscle of guinea pig pd'2 (converted)
Method: I Study on the Effects Against Spasmogenic Mediators [modified method of J. C. […] The investigation on isolated organs were carried out as follows. OHF Lt/R9 guinea pigs of both sexes weighing 300 to 400 g each were anaesthetized by pentobarbital. Their trachea was removed and sectioned in the opposite side to the site of smooth muscle in longitudinal direction. Subsequently, a strip-like preparation was obtained by […] cutting. […] A rest load of 0.5 g was used. Several washings were carried out during the incubation period of 30 minutes. The change in the tension of the tracheal smooth muscle was followed by using an isometric Grass FT-03 type tensiometer sensor device. A washing was made following the cumulative dose series of the given mediator (e.g. histamine). After reaching the base line, by 15 minutes after administration of the given concentration of the inhibitory (antiasthmatic) substance to be tested, the next cumulative dose series of the mediator was administered. In the case of an inhibitory action, the strength of effect, following the second dose series of the mediator, was […] in comparison to that of the first (control) series. For characterization of strength of the competitive antagonistic effect the pA2 value was determined according to the method of […] A pd'2 value was calculated [J. M. Van Rossum: Arch. Int.

[2] = system: carrageenin-induced rat paw edema; assay: Carrageenin-induced rat paw edema test; type: in vivo, rat (female CFY); settings: Rattus norvegicus, po, 50 mg/kg (p.o.), read-out: Percentage of the protective effect
Method: Proc. Soc. Exp. Med. 111, 544 (1962)]. Female CFY rats weighing 100 to 120 g each were used after starvation for 24 hours. The inflammation was induced by injecting 0.1 ml of 1% carrageenin solution into the right hind paw plant. The severity of inflammation was determined by using an Ugo-Basile type plethysmometer. The measurement was carried out before and 1.5, 3 and 4.5 hours after induction of the inflammation. The animals were orally treated with the substance to be tested 1 hour before administration of carrageenin. The effect was expressed as percentage inhibition related to the control group.

[3] = system: dextran-induced rat paw edema; assay: Dextran-induced rat paw edema test; type: in vivo; settings: 50 mg/kg (p.o.)
Method: 3) Dextran-induced rat paw edema test The method of S. Gourvaisier and R. Ducrot [Arch. Int. Pharmacodyn. Ther. 102, 33 (1955)] was employed. The method described for the carrageenin edema test was followed, except that the measurements were carried out 30, 60, 90, 120 and 180 minutes after induction of the inflammation.

| Compound | IC50 [1] | change in vivo at 50 mg/kg ([2]; 1.5 hours) | change in vivo at 50 mg/kg ([2]; 3 hours) | change in vivo at 50 mg/kg ([2]; 4.5 hours) | further results |
| --- | --- | --- | --- | --- | --- |
| N#CC(SCC(O)CN1CCOCC1)=C1NCCc2ccccc21 (centres unmarked) [Example 16, 2-(1,2,3,4-tetrahydro-1-isoquinolinylidene)-2-[2-hydroxy-3-(4-morpholinyl)propyl]mercaptoacetonitrile hydrochloride hemihydrate] | 32.4 µM | -29.3% | -22.2% | -20% |  |
| CCOc1cc2c(cc1OCC)C(=C(C#N)SCC(O)CNC(C)C)NCC2 (centres unmarked) [Example 7, 2-(6,7-diethoxy-1,2,3,4-tetrahydro-1-isoquinolinylidene)-2-(2-hydroxy-3-isopropylaminopropyl)mercaptoacetonitrile hydrochloride] | 17.4 µM |  |  |  |  |
| COc1cc2c(cc1OC)C(=C(C#N)SCC(O)CN1CCN(C)CC1)NCC2 (centres unmarked) [Example 21, 2-(6,7-dimethoxy-1,2,3,4-tetrahydro-1-isoquinolinylidene)-2-[2-hydroxy-3-(4-methyl-1-piperazinyl)propyl]mercaptoacetonitrile hydrochloride] | 2.88 µM |  |  |  |  |
| COc1cc2c(cc1OC)C(=C(C#N)SCC(O)CN1CCCCC1)NCC2 (centres unmarked) [Example 15, 2-(6,7-dimethoxy-1,2,3,4,-tetrahydro-1-isoquinolinylidene)-2-[2-hydroxy-3-(1-piperidinyl)propil]mercaptoacetonitrile hydrochloride] | 34.7 µM |  |  |  |  |
| CCOc1cc2c(cc1OCC)C(=C(C#N)SCC(O)CN1CCCC1)NCC2 (centres unmarked) [Example 13, 2-(6,7-diethoxy-1,2,3,4-tetrahydro-1-isoquinolinylidene)-2-[2-hydroxy-3-(1-pyrrolidinyl)propyl]mercaptoacetonitrile hydrochloride] | 12.6 µM | -31.8% | -21.8% | -9.05% |  |
| COc1cc2c(cc1OC)C(=C(C#N)SCC(O)CNC(C)(C)C)NCC2 (centres unmarked) [Example 8, 2-(6,7-dimethoxy-1,2,3,4-tetrahydro-1-isoquinolinylidene)-2-(3-tert-butylamino-2-hydroxypropyl)mercaptoacetonitrile hydrochloride] | 13.5 µM |  |  |  |  |
| COc1cc2c(cc1OC)C(=C(C#N)SCC(O)CNC(C)C)NCC2 (centres unmarked) [Example 6, 2-(6,7-dimethoxy-1,2,3,4-tetrahydro-1-isoquinolinylidene)-2-(2-hydroxy-3-isopropylaminopropyl)mercaptoacetonitrile hydrochloride hemihydrate] | 0.204 µM | 0% | -17% | 0% |  |
| COc1cc2c(cc1OC)C(=C(C#N)SCC(O)CNC1CCCCC1)NCC2 (centres unmarked) [Example 10, 2-(6,7-dimethoxy-1,2,3,4-tetrahydro-1-isoquinolinylidene)-2-(3-cyclohexylamino-2-hydroxypropyl)mercaptoacetonitrile hydrochloride] | 105 µM | -14.8% | -13% | -7.2% | Percentage of inhibition ([3]; 30 minutes): -25%; Percentage of inhibition ([3]; 60 minutes): -24%; Percentage of inhibition ([3]; 90 minutes): -25%; Percentage of inhibition ([3]; 120 minutes): -27%; Percentage of inhibition ([3]; 180 minutes): -50% |
| CCOc1cc2c(cc1OCC)C(=C(C#N)SCC(O)CN(CCO)CCO)NCC2 (centres unmarked) [Example 5, 2-(6,7-diethoxy-1,2,3,4-tetrahydro-1-isoquinolinylidene)-2-[3-(N,N-bis-2-hydroxyethyl)-amino-2-hydroxypropyl]mercapto-acetonitrile hydrochloride] | 45.7 µM | -21% | -16.5% | -10% |  |
| COc1cc2c(cc1OC)C(=C(C#N)SCC(O)CN1CCCCCC1)NCC2 (centres unmarked) [Example 19, 2-(6,7-dimethoxy-1,2,3,4-tetrahydro-1-isoquinolinylidene)-2-(3-hexamethylenimino-2-hydroxypropyl)mercaptoacetonitrile] | 97.7 µM | -29% | -24.2% | -19.5% | Percentage of inhibition ([3]; 30 minutes): -28.2%; Percentage of inhibition ([3]; 60 minutes): -26.6%; Percentage of inhibition ([3]; 90 minutes): -27.3%; Percentage of inhibition ([3]; 120 minutes): -27.8%; Percentage of inhibition ([3]; 180 minutes): -22.8% |
| CCN(CC)CC(O)CSC(C#N)=C1NCCc2cc(OC)c(OC)cc21 (centres unmarked) [Example 1, 2-(6,7-dimethoxy-1,2,3,4-tetrahydro-1-isoquinolinylidene)-2-(3-diethylamino-2-hydroxypropyl)-mercaptoacetonitrile hydrochloride] | 9.12 µM |  |  |  |  |
| CCOc1cc2c(cc1OCC)C(=C(C#N)SCC(O)CN1CCN(C)CC1)NCC2 (centres unmarked) [Example 22, 2-(6,7-diethoxy-1,2,3,4-tetrahydro-1-isoquinolinylidene)-2-[2-hydroxy-3-(4-methyl-piperazinyl)propyl]mercaptoacetonitrile hydrochloride] | 7.24 µM |  |  |  |  |
| COc1cc2c(cc1OC)C(=C(C#N)SCC(O)CN(C)CCO)NCC2 (centres unmarked) [Example 3, 2-(6,7-dimethoxy-1,2,3,4-tetrahydro-isoquinolinylidene)-2-[3-(N-methyl-N-2-hydroxyethyl)-amino-2-hydroxypropyl]-mercapto-acetonitrile hydrochloride] | 26.9 µM |  |  |  |  |
| COc1cc2c(cc1OC)C(=C(C#N)SCC(CN1CCOCC1)OC(C)=O)NCC2 (centres unmarked) [Example 23, 2-(6,7-dimethoxy-1,2,3,4-tetrahydro-1-isoquinolinylidene)-2-[2-acetoxy-3-(4-morpholinyl)propyl]mercaptoacetonitrile hydrochloride] | 17.4 µM | -33.8% | -30.9% | -29.5% |  |
| CCOc1cc2c(cc1OCC)C(=C(C#N)SCC(O)CN1CCOCC1)NCC2.Cl (single isomer, unassigned; (+)) [Example 28, (+)-2-(6,7-diethoxy-1,2,3,4-tetrahydro-1-isoquinolinylidene)-2-[2-hydroxy-3-(4-morpholinyl)propyl]mercaptoacetonitrile hydrochloride] |  |  |  |  | Inhibition of the histamine-induced constriction of isolated tracheal smooth muscle of guinea pig pd'2 ([1]; 15 min): 6.36 |
| CCOc1cc2c(cc1OCC)C(=C(C#N)SCC(O)CN(CC)CC)NCC2 (centres unmarked) [Example 2, 2-(6,7-diethoxy-1,2,3,4-tetrahydro-1-isoquinolinylidene)-2-(3-diethylamino-2-hydroxypropyl)-mercaptoacetonitrile hydrochloride] | 12.3 µM | -22.9% | -20.6% | -11.3% | Percentage of inhibition ([3]; 30 minutes): -24%; Percentage of inhibition ([3]; 60 minutes): -21%; Percentage of inhibition ([3]; 90 minutes): -25%; Percentage of inhibition ([3]; 120 minutes): -23%; Percentage of inhibition ([3]; 180 minutes): -17% |
| CCOc1cc2c(cc1OCC)C(=C(C#N)SCC(O)CN1CCOCC1)NCC2 (single isomer, unassigned; (-)) [Example 27, (-)-2-(6,7-diethoxy-1,2,3,4-tetrahydro-1-isoquinolinylidene)-2-[2-hydroxy-3-(4-morpholinyl)propyl]mercaptoacetonitrile d-camphorsulfonate] | 0.537 µM |  |  |  |  |
| CCOc1cc2c(cc1OCC)C(=C(C#N)SCC(O)CNC(C)(C)C)NCC2 (centres unmarked) [Example 9, 2-(6,7-diethoxy-1,2,3,4-tetrahydro-1-isoquinolinylidene)-2-(3-tert-butylamino-2-hydroxypropyl)mercaptoacetonitrile hydrochloride hemihydrate] | 41.7 µM |  |  |  |  |
| CCOc1cc2c(cc1OCC)C(=C(C#N)SCC(O)CNC1CCCCC1)NCC2 (centres unmarked) [Example 11, 2-(6,7-diethoxy-1,2,3,4-tetrahydro-1-isoquinolinylidene)-2-(3-cyclohexylamino-2-hydroxypropyl)mercaptoacetonitrile hydrochloride] | 35.5 µM |  |  |  |  |
| COc1cc2c(cc1OC)C(=C(C#N)SCC(O)CN(CCO)CCO)NCC2 (centres unmarked) [Example 4, 2-(6,7-dimethoxy-1,2,3,4-tetrahydro-1-isoquinolinylidene)-2-[3-(N,N-bis-2-hydroxyethyl)-amino-2-hydroxypropyl]-mercapto-acetonitrile hydrochloride dihydrate] | 50.1 µM | -25% | -26% | -24% |  |
